Results on one molecule are retold here after patent US11033544B2, “Low-dose triple combination formulation” (THE GEORGE INSTITUTE FOR GLOBAL HEALTH, priority 2019, dated 2021).

Entries after “also recorded” stand apart in the source; their conditions may differ.

What all share (assay type): in vivo
The subject of assay [1] is Zucker Diabetic Fatty (ZDF) rats. Kind of assay: Serum creatinine in the Zucker rat model of diet induced diabetes, 21 days of treatment. From the text:
(§1) Study Design: • Zucker rat model of diet induced diabetes (Zucker Diabetic Fatty Rats) • Parallel randomized study • 10 animals in each of 4 treatment groups • 21 days of treatment
(§2) Main Study Outcomes: • Glucose (measured at multiple time points before and during treatment) • HbA1c (before and at the end of the treatment period) • Insulin (before and at the end of the treatment period) • Creatinine (before and at the end of the treatment period)
(§3) Ten Zucker Diabetic Fatty (ZDF) rats were randomly allocated to each of the four different treatment groups (Table 6). Whole blood glucose measurements were made from 4 days before dosing, then daily until for 8 days, then at reduced frequency. Measurements of HbA1c and creatinine were made the day prior to dosing, then at days 9 and 21. Insulin measurements were made the day prior to dosing then on day 20. A clinical chemistry sample from one animal in the vehicle group on day 9 was not available so there is a missing measurement for creatinine and HbA1c on that day
(§4) Whole blood glucose, HbA1c and Creatinine were each analyzed using a linear mixed mode (proc mixed in SAS/STAT 14.2). For WBC, unstructured, autoregressive, exchangeable and Toeplitz correlation structures for repeated measurements across the study were compared using Akaike Information Criterion and Bayesian Information Criterion. The Toeplitz correlation structure was selected as the best fitting structure. For HbA1c and Creatinine an exchangeable structure was used as there were only two measurements. Denominator degrees of freedom were calculated using the between-within subject method. The model included coefficients for baseline measurement (the closest measurement preceding dosing), type of drug treatment, time and an interaction between drug treatment and time. Marginal means (with 95% confidence intervals) for the measurement at each period for each drug were estimated, and an overall marginal mean (with 95% confidence interval) for measurements across time was estimated using weights that reflect the differing amounts of time in each measurement period (assuming each measurement represented all time since the preceding measurement). A likelihood ratio test of overall differences between treatment was initially used, if significant (p<0.05) then we tested for differences between each combination of treatments.
(§5) To test for robustness of the linear mixed model and ANCOVA models a bootstrapped 95% CI (percentile method) for the weighted marginal mean of measurements across the entire study period or single outcome measurement using 2000 replicates was estimated. The bootstrap sampling was done on individual animal (using complete measurements), with stratification by treatment type.

For assay [2] the test system is unchanged. The experiment in a line: HbA1c in the Zucker rat model of diet induced diabetes, 21 days of treatment.
Source text: as §1, §2, §3, §4, §5

For assay [3] the test system is unchanged. The experiment in a line: Plasma insulin in the Zucker rat model of diet induced diabetes, 21 days of treatment.
Source text: as §1, §2, §3
For Insulin, a baseline measure and a measurement at day 20 was available, so the ANCOVA approach (linear regression with the baseline value as a covariate) was used to test for differences in this measurement between treatments. The interaction between baseline value and treatment was tested but there was no evidence of an interaction, therefore the main effects were retained.
as §5

The test system is the same in assay [4]. Kind of assay: Whole blood glucose in the Zucker rat model of diet induced diabetes, 21 days of treatment.
Source text: as §1, §2, §3, §4, §5

[5] abbreviates: whole study period, bootstrapped 95% CI, 2000 replicates.

As for `CN(C)C(=N)N=C(N)N` [Composition 1K-MET, Metformin], in assay [1] (21 days of treatment), the “Creatinine relative to the control group” value was “essentially no difference”. Moreover, the “Creatinine, pairwise comparison Vehicle vs treatment, Estimate (95% CI)” value in assay [1] (serum, days 9 and 21, difference = treatment minus vehicle) is on record as 0.01 (−0.01-0.03) mg/dL. Further, in assay [1] (serum, days 9 and 21, marginal mean, linear mixed model), the “Creatinine, Overall level in WBG after dosing, Estimate (95% CI)” value is on record as 0.79 (0.77-0.80) mg/dL. The “Creatinine, bootstrap median and confidence interval” value in assay [1] (setting [5]) is reported as 0.79 (0.77-0.80) mg/dL. The “HbA1c relative to the control group” value in assay [2] (21 days of treatment) is “essentially no difference”. The “HbA1c, pairwise comparison Vehicle vs treatment, Estimate (95% CI)” value in assay [2] (days 9 and 21, difference = treatment minus vehicle) is −0.35 (−0.68-−0.01) %. In addition, in assay [2] (measurements at days 9 and 21, marginal mean, linear mixed model), the “HbA1c, overall level after dosing, estimate (95% CI)” value is 6.52 (6.29-6.75) %. In assay [2] (setting [5]), the “HbA1c, bootstrap median and confidence interval” value was 6.53 (6.24-6.82) %. Moreover, the “Insulin levels relative to the control group / vehicle” value in assay [3] (day 20) was “no evidence of a difference; also recorded: essentially no difference”. Further, in assay [3] (day 20, ANCOVA with baseline as covariate), the “Insulin, Overall level in WBG after dosing, Estimate (95% CI)” value was 3879 (2757-5001) pg/mL. In addition, in assay [3] (day 20, bootstrapped 95% CI, 2000 replicates), the “Insulin, bootstrap median and confidence interval” value is given as 3867 (2914-4874) pg/m. Besides, in assay [3] (day 20, difference = treatment minus vehicle), the “Insulin, pairwise comparison Vehicle vs treatment, Estimate (95% CI)” value was 932 (−660-2524) pg/mL. The “WBG relative to the control group” value in assay [4] (21 days of treatment) is “essentially no difference”. Further, the “Whole blood glucose, pairwise comparison Vehicle vs treatment, Estimate (95% CI)” value in assay [4] (days 1-21, difference = treatment minus vehicle) is 24.4 (−5.2-53.9) mg/dL. Moreover, the “Overall level in WBG after dosing, Estimate (95% CI)” value in assay [4] (non-fasting whole blood glucose, time-weighted marginal mean over days 1-21 post-dosing, linear mixed model) was 442.7 (421.8-463.5) mg/dL. Moreover, the “Whole blood glucose, bootstrap median and confidence interval” value in assay [4] (setting [5]) is on record as 443.4 (419.8-465.0) mg/dL.
